In patent US9017952B2, “Reagents for probing ROCKs activation” (National Yang Ming University, priority 2012, dated 2015):
Each block holds one molecule with its values, some of them ahead of it. Square brackets hold non-standard residues; d marks the D form. Ends that are not written are not given here. pS = N[C@@H](COP(=O)(O)O)C(=O)O

Assays:
[1] = tested on: Ser^1333 phosphorylated flag-ROCKI; test: Western blotting with anti-pSer1333 ROCKI antibody, with peptide neutralization; assay type: binding; details: peptide 0.2 μg/ml, antibody 1 μg/ml
Description: FIG. 2(B) illustrates the Western blotting pattern showing anti-pSer^1333 ROCKI antibody-I against the phosphorylated ROCKI. flag-ROCKI protein is obtained with extraction after the WT or S1333A mutant flag-ROCKI expression constructs are respectively transfected to […] cells and immunoprecipitated using anti-flag antibody, and Ser^1333 phosphorylation of flag-ROCKI is probed with antibody-I (1 μg/ml) with or without the competition of phosphorylated peptide-Ia (0.2 μg/ml).
myc-ROCKII-expressing cells were harvested in an immunoprecipitation (IP) buffer (1% NP-40, 5% glycerol, 50 mM Tris/HCl, pH 7.4, 150 mM NaCl, 1 mM PMSF (phenylmethylsulfonyl fluoride), and protease inhibitor cocktail). The lysates after pre-clearance were incubated with anti-myc antibody at 4° C. for 60 minutes, and then precipitated with protein A-agarose beads for 30 minutes. The immunoprecipitates were preincubated with or without 100 μM of Y27632 (ROCK inhibitor), which was followed by incubation with a IX kinase buffer (50 mM Tris/HCl, pH 7.4, 10 mM MgCl2, 1 mM EGTA (ethylene glycol tetraacetic acid), 0.5 mM DTT (dithiothreitol), 5 mM NaF, and 0.1 mM Na3VO4, 20 μM ATP) containing 5 μCi of [γ-^32p]ATP at 30° C. for 20 minutes. […] The protein level of myc-ROCKII was detected by Western blotting with anti-myc antibody known by the skilled person in the art. […]

[2] = tested on: ROCKII Ser^1366 phosphorylation; test: Western blotting of serum-starved mouse embryonic fibroblasts stimulated with nocodazole with or without Y27632; assay type: cell-based
Description: FIGS. 6(A) and 6(B) respectively illustrate the Western blotting patterns showing (A) antibody-I and (B) antibody-II against the protein extract from normal mouse embryonic fibroblasts (MEFs) stimulated with nocodazole(10 μM) in present or absent of Y27632 (10 μM).
In addition to the above human cell experiments, the level of Ser^1366 phosphorylation of ROCKII in animal cells is also researched in the present invention.

[3] = tested on: Ser^1366 phosphorylated myc-ROCKII; test: Western blotting with anti-pSer1366 ROCKII antibody, with peptide neutralization and λPPase treatment; assay type: binding; details: peptide 0.2 μg/ml, antibody 1 μg/ml
Description: FIG. 2(A) illustrates the Western blotting pattern showing anti-pSer^1366 ROCKII antibody-II against the phosphorylated ROCKII. myc-ROCKII protein is obtained with extraction after the WT or S1366A mutant myc-ROCKII expression constructs are respectively transfected into HEK-293T cells and immunoprecipitated using anti-myc antibody, and Ser^1366 phosphorylation of myc-ROCKII is probed with antibody-II (1 μg/ml) with or without the competition of phosphorylated peptide-IIa (0.2 μg/ml).
FIG. 3 illustrates the Western blotting pattern showing the signal of immunoprecipitated WT myc-ROCKII with or without λ protein phosphatase (λPPase) at 30° C. for 20 minutes treatment probed with antibody-II
myc-ROCKII-expressing cells were harvested in an immunoprecipitation (IP) buffer (1% NP-40, 5% glycerol, 50 mM Tris/HCl, pH 7.4, 150 mM NaCl, 1 mM PMSF (phenylmethylsulfonyl fluoride), and protease inhibitor cocktail). The lysates after pre-clearance were incubated with anti-myc antibody at 4° C. for 60 minutes, and then precipitated with protein A-agarose beads for 30 minutes. […] The protein level of myc-ROCKII was detected by Western blotting with anti-myc antibody known by the skilled person in the art. […]

[4] = tested on: ROCKII Ser^1366 phosphorylation; test: immunohistochemical staining of human breast tumor tissue with anti-pSer1366 ROCKII antibody and peptide competition; details: antibody 5 μg/ml, peptide 0.5 μg/ml
Excerpt: FIG. 7 illustrates the immunohistochemistry images showing RCOKII Ser^1366 phosphorylation in human breast tumor tissues. The tumor part and non-tumor part breast tissues of from two breast cancer patients are sectioned, and probed with anti-pSer^1366 ROCKII antibody in the presence of phosphorylated peptide-lib and unphosphorylated peptide-IIa. The normal rabbit IgG is the control for negative reaction, and #1 is negative for lymph node and #2 is positive for lymph node.
The tumor part and the non-tumor part of the breast tissue blocks were embedded in Tissue-Tek OCT™ compound, snap-frozen, and sectioned into 5 μm cryosections. The sections were fixed with 4% (w/v) paraformaldehyde for 15 minutes and placed in boiling citrate buffer for 10 minutes. Endogenous peroxidase activity was quenched by 3% […] for 10 minutes and this was followed by incubation with 5.5% (v/v) normal goat serum in Tris-buffer saline containing 0.1% of Triton X-100 (TBST) for blocking. Sections were subsequently incubated with primary antibody against pSer^1366 ROCKII (1:200 dilution; 5 μg/ml) in the present or absence of the phosphopeptide or non-phosphopeptide (0.5 μg/ml). […]
Next, whether ROCKII Ser^1366 phosphorylation can be detected is determined by anti-pSer^1366 ROCKII antibody-II. […]

[5] = target: ROCKII Ser^1366 phosphorylation (Bos taurus, UniProt Q28021); test: Western blotting of Ser1366 phosphorylated myc-ROCKII from treated HEK293T cells; assay type: cell-based, human; details: Y27632 20 μM for 2 hours, probed with antibody-II
Description: myc-ROCKII-expressing cells were harvested in an immunoprecipitation (IP) buffer (1% NP-40, 5% glycerol, 50 mM Tris/HCl, pH 7.4, 150 mM NaCl, 1 mM PMSF (phenylmethylsulfonyl fluoride), and protease inhibitor cocktail). The lysates after pre-clearance were incubated with anti-myc antibody at 4° C. for 60 minutes, and then precipitated with protein A-agarose beads for 30 minutes. The immunoprecipitates were preincubated with or without 100 μM of Y27632 (ROCK inhibitor), which was followed by incubation with a IX kinase buffer (50 mM Tris/HCl, pH 7.4, 10 mM MgCl2, 1 mM EGTA (ethylene glycol tetraacetic acid), 0.5 mM DTT (dithiothreitol), 5 mM NaF, and 0.1 mM Na3VO4, 20 μM ATP) containing 5 μCi of [γ-^32p]ATP at 30° C. for 20 minutes. The immunoprecipitates (controls) from non-transfected cells were used backgrounds. The protein level of myc-ROCKII was detected by Western blotting with anti-myc antibody known by the skilled person in the art.

myc-ROCKII = myc-ROCKII (Bos taurus, UniProt Q28021); test: in vitro kinase reaction of immunoprecipitated myc-ROCKII with [γ-32P]ATP (autophosphorylation); assay type: biochemical; details: immunoprecipitates preincubated with 100 μM Y27632; 30° C., 20 minutes
Description: myc-ROCKII-expressing cells were harvested in an immunoprecipitation (IP) buffer (1% NP-40, 5% glycerol, 50 mM Tris/HCl, pH 7.4, 150 mM NaCl, 1 mM PMSF (phenylmethylsulfonyl fluoride), and protease inhibitor cocktail). The lysates after pre-clearance were incubated with anti-myc antibody at 4° C. for 60 minutes, and then precipitated with protein A-agarose beads for 30 minutes. The immunoprecipitates were preincubated with or without 100 μM of Y27632 (ROCK inhibitor), which was followed by incubation with a IX kinase buffer (50 mM Tris/HCl, pH 7.4, 10 mM MgCl2, 1 mM EGTA (ethylene glycol tetraacetic acid), 0.5 mM DTT (dithiothreitol), 5 mM NaF, and 0.1 mM Na3VO4, 20 μM ATP) containing 5 μCi of [γ-^32p]ATP at 30° C. for 20 minutes. The immunoprecipitates (controls) from non-transfected cells were used backgrounds.
The myc-ROCKII protein overexpressed in HEK-293T cells was immunoprecipitated and subjected to an in vitro kinase reaction containing [γ-^32P]ATP in the presence or absence of the ROCK inhibitor Y27632.

[6] = MEFs serum-starved 24 hours, nocodazole 10 μM

ROCKII Ser^1366 phosphorylation (Bos taurus, UniProt Q28021), sequence (Q28021 6-1388): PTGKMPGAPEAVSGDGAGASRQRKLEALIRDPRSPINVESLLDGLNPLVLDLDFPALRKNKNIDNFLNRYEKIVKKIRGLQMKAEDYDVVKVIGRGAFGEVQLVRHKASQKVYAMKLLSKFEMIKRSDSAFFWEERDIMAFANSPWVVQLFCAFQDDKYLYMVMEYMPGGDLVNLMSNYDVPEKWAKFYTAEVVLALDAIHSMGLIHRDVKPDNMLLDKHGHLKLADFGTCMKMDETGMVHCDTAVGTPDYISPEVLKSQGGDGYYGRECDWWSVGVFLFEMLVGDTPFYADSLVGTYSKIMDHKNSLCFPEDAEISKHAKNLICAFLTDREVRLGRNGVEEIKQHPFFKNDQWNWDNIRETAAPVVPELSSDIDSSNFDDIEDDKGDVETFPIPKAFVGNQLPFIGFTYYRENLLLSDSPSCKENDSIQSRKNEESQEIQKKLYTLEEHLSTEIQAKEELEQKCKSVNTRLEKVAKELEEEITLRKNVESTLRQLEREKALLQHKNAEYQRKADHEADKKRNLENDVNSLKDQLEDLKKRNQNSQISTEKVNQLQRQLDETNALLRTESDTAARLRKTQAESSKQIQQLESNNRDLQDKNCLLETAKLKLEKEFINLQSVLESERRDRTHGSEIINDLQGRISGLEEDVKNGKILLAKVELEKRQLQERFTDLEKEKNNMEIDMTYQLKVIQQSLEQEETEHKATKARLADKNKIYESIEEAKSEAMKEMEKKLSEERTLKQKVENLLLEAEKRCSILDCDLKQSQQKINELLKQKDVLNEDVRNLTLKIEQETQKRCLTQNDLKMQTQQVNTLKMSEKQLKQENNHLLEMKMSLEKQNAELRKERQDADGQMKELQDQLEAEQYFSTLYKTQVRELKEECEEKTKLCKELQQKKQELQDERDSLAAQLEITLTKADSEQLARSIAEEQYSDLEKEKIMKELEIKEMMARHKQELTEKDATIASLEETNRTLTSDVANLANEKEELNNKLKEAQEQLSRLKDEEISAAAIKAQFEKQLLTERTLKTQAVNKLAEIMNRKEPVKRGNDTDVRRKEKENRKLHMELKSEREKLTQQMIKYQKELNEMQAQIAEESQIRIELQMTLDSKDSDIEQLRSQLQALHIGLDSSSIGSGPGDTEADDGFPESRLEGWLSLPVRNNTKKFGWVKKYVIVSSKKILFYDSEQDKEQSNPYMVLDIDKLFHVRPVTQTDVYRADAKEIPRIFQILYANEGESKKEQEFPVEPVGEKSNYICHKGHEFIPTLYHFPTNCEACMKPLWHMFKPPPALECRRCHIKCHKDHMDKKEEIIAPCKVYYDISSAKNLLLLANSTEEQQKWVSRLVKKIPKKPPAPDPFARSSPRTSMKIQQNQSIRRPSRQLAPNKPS
myc-ROCKII, sequence (Q28021 6-1388): as above

Molecule: N′-RASPRTLpSTRS-C′ (SEQ ID NO:4) (RASPRTL[pS]TRS) [peptide-Ib]
neutralization of the autophosphorylated signal of anti-pSer^1333 ROCKI antibody [1]: neutralized

Molecule: COC(=O)Nc1nc2ccc(C(=O)c3cccs3)cc2[nH]1 [nocodazole]
downstream phosphor-MLC signal regulated by ROCKII [2, 6]: markedly increased
signal of ROCKII Ser^1366 phosphorylation [2, 6]: enhanced

Molecule: N′-DPFARSSPRTpSMK-C′ (SEQ ID NO:6) (DPFARSSPRT[pS]MK) [peptide-lib]
neutralization of the autophosphorylated signal of anti-pSer^1366 ROCKII antibody [3]: neutralized
ROCKII Ser^1366 phosphorylation signal in IHC under peptide competition [4]: blocked

signal level of Ser^1366 phosphorylated myc-ROCKII [5]: markedly decreased
phosphorylation signal of radioactively labeled ROCKII (myc-ROCKII): abolished the phosphorylation signal
Molecule: C[C@@H](N)[C@H]1CC[C@H](C(=O)Nc2ccncc2)CC1 [Y27632]
enhanced phosphorylation signal (ROCKII Ser^1366, phospho-MLC) induced by nocodazole ([2]; MEFs, nocodazole 10 μM plus Y27632 10 μM): disappeared
